Measurements: PubChem BioAssay AID624444 (Broad Institute, 2012)
The source made the active and inactive calls.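 How the source made its calls: active means fitted curve reaches 35% signal loss at a dose no higher than twice the top tested dose; inconclusive means flat fit with 30 to 70% loss, or poor fit; inactive means the rest.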

Test system: 26S proteasome chymotrypsin-like activity (human)
Experiment: proteasome chymotrypsin-like activity inhibition in cells, dose response, mechanism study for HSF1 activator project, U2OS cells, luminescence, dry powder (AID 624444)
Conditions: Proteasome-Glo chymotrypsin luminescence; for activity change, negative = inhibition: at 38 µM (top of the series)

| Structure (SMILES) | activity change, negative = inhibition | AC35 |
| --- | --- | --- |
| O=C(Nc1ccccc1)Nc1nc(SCc2ccccc2)ns1 | -37.2% (inactive) |  |
| Nc1nc(S(=O)(=O)Cc2ccccc2)ns1 | -9% (inactive) |  |
| Cc1cccc(CSc2nsc(N)n2)c1 | 3.69% (inactive) |  |
| Nc1nc(SCc2ccc(Cl)cc2Cl)ns1 | 41.7% (inactive) |  |
| O=C(Nc1nc(SCc2ccccc2)ns1)C1CC=CCC1 (configuration not stated) | -29.4% (inactive) |  |
| Nc1nc(SCc2ccc(F)cc2)ns1 | -32% (inactive) |  |
| O=C(Nc1nc(SCc2ccccc2)ns1)C1CCC1 |  | 35.4 µM |

Now from value to molecule:

| activity change, negative = inhibition | AC35 | Structure (SMILES) |
| --- | --- | --- |
| -3.56% (inactive) |  | Cc1ccccc1CSc1nsc(N)n1 |
| -9.05% (inactive) |  | Nc1nc(SCc2ccccc2Cl)ns1 |
| -11% (inactive) |  | Nc1nc(SCc2ccccc2)ns1 |
| 19.2% (inactive) |  | Cc1ccccc1CSc1n[nH]c(N)n1 |
|  | 26 µM | Cc1ccccc1CSc1nnc(N)s1 |
